The test addresses T1, c-MYC (Homo sapiens, UniProt P01106).
T1 construct: Recombinant human c-MYC protein (ab169901)
Description: microscale thermophoresis with fluorescently labelled recombinant human c-MYC. It counts as binding. Background: Microscale thermophoresis detects binding through changes in fluorescence in a small temperature gradient.

T1 sequence (P01106 16-454): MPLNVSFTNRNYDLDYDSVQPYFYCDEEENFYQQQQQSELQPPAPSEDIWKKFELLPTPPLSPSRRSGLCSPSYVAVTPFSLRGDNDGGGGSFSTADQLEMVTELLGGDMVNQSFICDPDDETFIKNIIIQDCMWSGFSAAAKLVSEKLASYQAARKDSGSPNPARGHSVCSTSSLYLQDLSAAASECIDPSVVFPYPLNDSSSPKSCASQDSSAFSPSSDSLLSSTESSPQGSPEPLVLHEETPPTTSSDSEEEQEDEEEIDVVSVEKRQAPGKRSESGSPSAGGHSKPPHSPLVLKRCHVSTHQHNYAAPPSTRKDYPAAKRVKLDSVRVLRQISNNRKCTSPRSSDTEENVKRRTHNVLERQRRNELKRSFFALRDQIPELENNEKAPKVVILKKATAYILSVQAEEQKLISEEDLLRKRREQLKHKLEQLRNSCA

As a reminder, the Kd is the equilibrium constant for the complex coming apart. `C[C@H]1[C@@H](OCC(CO[C@H]2O[C@@H]3O[C@@]4(C)CC[C@H]5[C@H](C)CC[C@@H]([C@H]2C)[C@@]35OO4)NNC(=O)c2ccncc2)O[C@@H]2O[C@@]3(C)CC[C@H]4[C@H](C)CC[C@@H]1[C@@]24OO3` (stereo partly shown) [ELI-XXIIID-98-2, ELI-XXIII-98-2]: the Kd stood at 1190 ± 240 nM.

(Values after paper PMC10144546, “The Novel Artemisinin Dimer Isoniazide ELI-XXIII-98-2 Induces c-MYC Inhibition, DNA Damage, and Autophagy in Leukemia Cells” (Pharmaceutics, 2023).)
